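Five compound concentrations were applied to cells in 96-well plates for 48 hours; endpoints were derived by simple linear interpolation of the resulting dose-response curve. GI50 = concentration required for 50% inhibition of growth. TGI is the concentration that stops growth completely.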
How the values were obtained:
Assay in all cases: NCI anticancer screen, dose series, 48 h
[1] = tested on: ACHN renal
[2] = tested on: EKVX NSCLC
[3] = tested on: SK-MEL-2 melanoma
[4] = tested on: HOP-62 NSCLC
[5] = tested on: IGROV1 ovarian
[6] = tested on: NCI-H522 lung
[7] = tested on: UACC-62 melanoma
[8] = tested on: RPMI-8226 leukemia
[9] = tested on: SK-MEL-5 melanoma
[10] = tested on: SF-268 CNS
[11] = tested on: MDA-MB-435
[12] = tested on: MDA-MB-231 breast
[13] = tested on: SF-539 CNS
[14] = tested on: HCT-15 colon
[15] = tested on: OVCAR-8 ovarian
[16] = tested on: DU-145 prostate
[17] = tested on: CCRF-CEM leukemia
[18] = tested on: OVCAR-4 ovarian
[19] = tested on: KM12 colon
[20] = tested on: PC-3 prostate
[21] = tested on: A549 NSCLC
[22] = tested on: OVCAR-3 ovarian
[23] = tested on: HCC-2998 colon
[24] = tested on: HCT-116 colon
[25] = tested on: SNB-19 CNS
[26] = tested on: MCF7 breast
[27] = tested on: HL-60(TB) leukemia
[28] = tested on: SW-620 colon
[29] = tested on: NCI-H460 lung
[30] = tested on: OVCAR-5 ovarian
[31] = tested on: T-47D breast
[32] = tested on: RXF 393 renal
[33] = tested on: SF-295 CNS
[34] = tested on: HT29 colon
[35] = tested on: NCI-H226 lung
[36] = tested on: HOP-92 NSCLC
[37] = tested on: U251 CNS
[38] = tested on: K-562 leukemia
[39] = tested on: MOLT-4 leukemia
[40] = tested on: SN12C renal
[41] = tested on: A498 renal
[42] = tested on: MALME-3M melanoma
[43] = tested on: TK-10 renal
[44] = tested on: M14 melanoma
[45] = tested on: SNB-75 CNS
[46] = tested on: SK-MEL-28 melanoma
[47] = tested on: SR leukemia
[48] = tested on: LOX IMVI melanoma
[49] = tested on: NCI-H23 lung
[50] = tested on: COLO 205 colon
[51] = tested on: UACC-257 melanoma
[52] = tested on: NCI/ADR-RES ovarian
[53] = tested on: UO-31 renal
[54] = tested on: HS 578T breast
[55] = tested on: CAKI-1 renal
[56] = tested on: 786-0 renal
[57] = tested on: SK-OV-3 ovarian

For `O=C(C[Si](CC(=O)c1cccc(C(F)(F)F)c1)CC(=O)c1cccc(C(F)(F)F)c1)c1cccc(C(F)(F)F)c1`, the GI50 [1] was 2 µM, the TGI [1] was 4.94 µM and the GI50 [2] was 3.1 µM. It also gave a TGI [2] of 11.5 µM, a GI50 [3] of 2.28 µM and a TGI [3] of 5.29 µM. For the same compound, the GI50 [4] was 3.44 µM, the TGI [4] was 12 µM and the GI50 [5] was 6.24 µM. For the same compound, the TGI [5] was 27.8 µM, the GI50 [6] was 2.6 µM and the TGI [6] was 9.01 µM. The GI50 [7] was 2.23 µM, the TGI [7] was 6.28 µM and the GI50 [8] was 2.12 µM. The TGI [8] was 5.71 µM, the GI50 [9] was 1.63 µM and the TGI [9] was 3.03 µM. The GI50 [10] was 3.8 µM, the TGI [10] was 13.9 µM and the GI50 [11] was 3.27 µM. For the same compound, the TGI [11] was 10.4 µM, the GI50 [12] was 2.3 µM and the TGI [12] was 4.73 µM. The GI50 [13] was 1.85 µM, the TGI [13] was 3.85 µM and the GI50 [14] was 2.06 µM. For the same compound, the TGI [14] was 6.25 µM, the GI50 [15] was 3.48 µM and the TGI [15] was 10.9 µM. It also gave a GI50 [16] of 4.43 µM, a TGI [16] of 14.8 µM and a GI50 [17] of 3.1 µM. The TGI [17] was 10.6 µM, the GI50 [18] was 3.12 µM and the TGI [18] was 12.1 µM. The GI50 [19] was 3.25 µM, the TGI [19] was 10.1 µM and the GI50 [20] was 3.11 µM. The TGI [20] was 11 µM, the GI50 [21] was 3.39 µM and the TGI [21] was 11.3 µM. For the same compound, the GI50 [22] was 3.32 µM, the TGI [22] was 10.5 µM and the GI50 [23] was 3.46 µM. It also gave a TGI [23] of 15 µM, a GI50 [24] of 2.41 µM and a TGI [24] of 8.87 µM. For the same compound, the GI50 [25] was 3.88 µM, the TGI [25] was 13.4 µM and the GI50 [26] was 3.05 µM. For the same compound, the TGI [26] was 11.5 µM, the GI50 [27] was 2.52 µM and the TGI [27] was 5.99 µM. The GI50 [28] was 3.23 µM, the TGI [28] was 13.3 µM and the GI50 [29] was 3.18 µM. It also gave a TGI [29] of 10.4 µM, a GI50 [30] of 2.19 µM and a TGI [30] of 6.51 µM. For the same compound, the GI50 [31] was 4.48 µM, the TGI [31] was 13.9 µM and the GI50 [32] was 2.07 µM. It also gave a TGI [32] of 4.3 µM, a GI50 [33] of 2.88 µM and a TGI [33] of 11.2 µM. It also gave a GI50 [34] of 2.55 µM, a TGI [34] of 12 µM and a GI50 [35] of 2.11 µM. It also gave a TGI [35] of 5.3 µM, a GI50 [36] of 2.15 µM and a TGI [36] of 6.43 µM. The GI50 [37] was 3.27 µM, the TGI [37] was 10.4 µM and the GI50 [38] was 3.57 µM. For the same compound, the TGI [38] was 13.4 µM, the GI50 [39] was 2.81 µM and the TGI [39] was 8.24 µM. It also gave a GI50 [40] of 3.03 µM, a TGI [40] of 10.1 µM and a GI50 [41] of 2.34 µM. It also gave a TGI [41] of 9.62 µM, a GI50 [42] of 4.03 µM and a TGI [42] of 17.4 µM. It also gave a GI50 [43] of 3.52 µM, a TGI [43] of 14.1 µM and a GI50 [44] of 3.16 µM. The TGI [44] was 10.1 µM, the GI50 [45] was 2.42 µM and the TGI [45] was 8.81 µM. It also gave a GI50 [46] of 3.51 µM, a TGI [46] of 13.6 µM and a GI50 [47] of 2.72 µM. It also gave a TGI [47] of 7.19 µM, a GI50 [48] of 2.94 µM and a TGI [48] of 11.4 µM. It also gave a GI50 [49] of 3.27 µM, a TGI [49] of 15.6 µM and a GI50 [50] of 1.67 µM. The TGI [50] was 3.07 µM, the GI50 [51] was 2.65 µM and the TGI [51] was 6.38 µM. For the same compound, the GI50 [52] was 3.75 µM, the TGI [52] was 15.4 µM and the GI50 [53] was 3.2 µM. For the same compound, the TGI [53] was 14.2 µM, the GI50 [54] was 4.51 µM and the TGI [54] was 25.9 µM. The GI50 [55] was 3.39 µM and the TGI [55] was 12.9 µM.
`O=C1CC(c2ccccc2Cl)Oc2ccccc21` (stereo not drawn) was tested, and the TGI [2] was greater than 100 µM, the TGI [3] was 59.9 µM and the TGI [4] was 91.1 µM. The TGI [5] was greater than 100 µM, the TGI [7] was greater than 100 µM and the TGI [8] was 40.7 µM. It also gave a TGI [56] of 89.5 µM, a TGI [9] greater than 100 µM and a TGI [10] greater than 100 µM. The TGI [11] was 43.7 µM, the TGI [12] was 47.4 µM and the TGI [13] was 34.8 µM. For the same compound, the TGI [14] was 61 µM, the TGI [15] was 87.1 µM and the TGI [16] was greater than 100 µM. It also gave a TGI [17] greater than 100 µM, a TGI [18] greater than 100 µM and a TGI [19] of 81.7 µM. It also gave a TGI [20] greater than 100 µM, a TGI [57] greater than 100 µM and a TGI [23] greater than 100 µM. It also gave a TGI [24] greater than 100 µM, a TGI [25] greater than 100 µM and a TGI [26] of 45.4 µM. It also gave a TGI [27] greater than 100 µM, a TGI [28] of 67.5 µM and a TGI [29] greater than 100 µM. For the same compound, the TGI [31] was greater than 100 µM, the TGI [32] was 63.5 µM and the TGI [33] was greater than 100 µM. It also gave a TGI [34] of 22.7 µM, a TGI [35] of 30.1 µM and a TGI [36] of 75.2 µM. For the same compound, the TGI [37] was 83 µM, the TGI [38] was 40.8 µM and the TGI [41] was greater than 100 µM. For the same compound, the TGI [43] was greater than 100 µM, the TGI [44] was greater than 100 µM and the TGI [45] was greater than 100 µM. The TGI [46] was greater than 100 µM, the TGI [47] was 50.9 µM and the TGI [48] was greater than 100 µM. It also gave a TGI [50] of 68.2 µM, a TGI [51] greater than 100 µM and a TGI [52] of 48.8 µM. For the same compound, the TGI [53] was greater than 100 µM, the TGI [54] was greater than 100 µM and the TGI [55] was greater than 100 µM.

Source: PubChem BioAssay (NCI)
